These results are taken from ChEMBL document CHEMBL1149222, “Synthesis and in vitro antimycobacterial activity of novel 3-(1H-pyrrol-1-yl)-2-oxazolidinone analogues of PNU-100480” (2004).

Molecules are shown by their SMILES. ≈ marks a conversion by molar mass, not a printed value.

Holding throughout (type): functional
The test system of assay [1] is Mycobacterium tuberculosis. The experiment in a line: In vitro anti-mycobacterial activity against ethambutol resistant Mycobacterium tuberculosis ATCC 35837 was determined.
The test system of assay [2] is Mycobacterium tuberculosis. In words: In vitro anti-mycobacterial activity against ethambutol resistant Mycobacterium tuberculosis ATCC 35837 determined by the MTT method. On the technique in general: Tetrazolium assays rely on reduction of a dye to a coloured formazan, in cell work by metabolically active cells.
The test system of assay [3] is Mycobacterium tuberculosis. The experiment in a line: In vitro anti-mycobacterial activity against pirazynamide resistant Mycobacterium tuberculosis ATCC 35828 determined by the MTT method.
Assay [4] relates to Mycobacterium tuberculosis. The experiment in a line: In vitro anti-mycobacterial activity against streptomycin resistant Mycobacterium tuberculosis ATCC 35820 was determined.
In assay [5] the test system is Mycobacterium tuberculosis. In words: In vitro anti-mycobacterial activity against streptomycin resistant Mycobacterium tuberculosis ATCC 35820 determined by the MTT method.
The subject of assay [6] is Mycobacterium tuberculosis. The experiment in a line: In vitro anti-mycobacterial activity against pirazynamide resistant Mycobacterium tuberculosis ATCC 35828 was determined.

As for `CC(=O)NC[C@H]1CN(c2ccn(-c3cccc(F)c3)c2)C(=O)O1`, the MIC50 – broadly, the lowest concentration that inhibits either 50% of growth or 50% of the strains tested, depending on the study – stood at 7 µM (≈ 2.22 µg/mL) in assay [1], 0.9 µM (≈ 0.286 µg/mL) in assay [4] and 18.4 µM (≈ 5.84 µg/mL) in assay [6]. In addition, the MIC90 (commonly the lowest concentration that inhibits either 90% of growth or 90% of the strains tested, depending on the study) in assay [2] is 24.9 µM (≈ 7.9 µg/mL); in assay [3] it was 63.9 µM (≈ 20.3 µg/mL); in assay [5] it was over 100 µM.
`CC(=O)NC[C@H]1CN(c2ccn(-c3ccccc3)c2)C(=O)O1`: the MIC50 came out at 23.8 µM (≈ 7.12 µg/mL) in assay [1], 5.6 µM (≈ 1.68 µg/mL) in assay [4] and 50.3 µM (≈ 15.1 µg/mL) in assay [6]. Besides, the MIC90 is 100 µM (≈ 29.9 µg/mL) in assay [2], over 100 µM in assay [3] and at least 100 µM in assay [5].
In the case of `CC(=O)NC[C@H]1CN(c2ccn(N3CCOCC3)c2)C(=O)O1`, the MIC50 in assay [1], in assay [4] and in assay [6] was over 100 µM throughout.
Regarding `CC(=O)NC[C@H]1CN(c2ccn(-c3ccccc3F)c2)C(=O)O1`, the figures for the MIC50 in assay [1], in assay [4] and in assay [6] were 7 µM (≈ 2.22 µg/mL), 1.1 µM (≈ 0.349 µg/mL) and 10 µM (≈ 3.17 µg/mL), respectively. Moreover, the MIC90 in assay [2] came to 23.9 µM (≈ 7.58 µg/mL); in assay [3] it was 58.7 µM (≈ 18.6 µg/mL); in assay [5], 45 µM (≈ 14.3 µg/mL).
For the compound `CC(=O)NC[C@H]1CN(c2ccn(-c3ccc(N4CCOCC4)c(F)c3)c2)C(=O)O1`, the MIC50 in assay [1] was 63.5 µM (≈ 25.6 µg/mL); in assay [4], 4.9 µM (≈ 1.97 µg/mL); in assay [6], over 100 µM. In addition, the MIC90 in assay [3] and in assay [5] was over 100 µM in each case.
In the case of `CC(=O)NC[C@H]1CN(c2ccn(-c3ccc(F)cc3)c2)C(=O)O1`, the results for the MIC50 in assay [1], in assay [4] and in assay [6] were 13.5 µM (≈ 4.28 µg/mL), 0.8 µM (≈ 0.254 µg/mL) and 21.5 µM (≈ 6.82 µg/mL), respectively. Besides, the MIC90 was 56.6 µM (≈ 18 µg/mL) in assay [2], 73.7 µM (≈ 23.4 µg/mL) in assay [3] and 39.9 µM (≈ 12.7 µg/mL) in assay [5].
As to `NNC(=O)c1ccncc1` [ISONIAZID], the MIC50 in assay [1] was 0.2 µM (≈ 0.0274 µg/mL); in assay [4] it was 1.3 µM (≈ 0.178 µg/mL); in assay [6] it was 0.1 µM (≈ 0.0137 µg/mL). Besides, the results for the MIC90 in assay [2], in assay [3] and in assay [5] were 13 µM (≈ 1.78 µg/mL), over 100 µM and over 100 µM, respectively.
With `CC(=O)NC[C@H]1CN(c2ccc(N3CCSCC3)c(F)c2)C(=O)O1` [SUTEZOLID], the results for the MIC50 in assay [1], in assay [4] and in assay [6] were 0.06 µM (≈ 0.0212 µg/mL), 5.6 µM (≈ 1.98 µg/mL) and 0.1 µM (≈ 0.0353 µg/mL), respectively. The MIC90 in assay [2] worked out at 0.3 µM (≈ 0.106 µg/mL); in assay [3], 0.7 µM (≈ 0.247 µg/mL); in assay [5], 0.4 µM (≈ 0.141 µg/mL).
